In test [1] the target is T1, Coagulation factor XIII A chain (Homo sapiens, UniProt P00488).
T1 sequence (P00488 whole entry): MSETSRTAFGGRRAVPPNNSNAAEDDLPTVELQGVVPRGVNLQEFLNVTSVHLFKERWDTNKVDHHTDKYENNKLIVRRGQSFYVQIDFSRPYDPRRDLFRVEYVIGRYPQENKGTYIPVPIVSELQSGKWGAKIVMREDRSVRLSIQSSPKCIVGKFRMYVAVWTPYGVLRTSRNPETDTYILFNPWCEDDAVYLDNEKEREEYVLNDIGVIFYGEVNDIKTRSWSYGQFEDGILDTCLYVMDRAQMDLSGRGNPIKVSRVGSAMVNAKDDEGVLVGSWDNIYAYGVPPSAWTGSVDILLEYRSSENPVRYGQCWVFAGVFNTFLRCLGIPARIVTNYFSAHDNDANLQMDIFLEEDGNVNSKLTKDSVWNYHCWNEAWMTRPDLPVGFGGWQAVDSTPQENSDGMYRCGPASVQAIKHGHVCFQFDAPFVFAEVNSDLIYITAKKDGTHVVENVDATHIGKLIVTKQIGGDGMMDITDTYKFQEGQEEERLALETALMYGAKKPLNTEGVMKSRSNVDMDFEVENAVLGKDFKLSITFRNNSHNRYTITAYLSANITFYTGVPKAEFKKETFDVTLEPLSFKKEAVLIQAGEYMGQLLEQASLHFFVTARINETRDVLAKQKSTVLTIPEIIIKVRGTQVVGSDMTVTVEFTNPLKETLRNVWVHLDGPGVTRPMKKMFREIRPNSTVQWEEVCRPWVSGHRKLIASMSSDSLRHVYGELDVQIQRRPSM
In words: Inhibition of thrombin-activated F13-A (unknown origin) in plasma assessed as inhibition of fibrin clot formation after 7 mins by biotin incorporation assay.

The target in test [2] is T2, Coagulation factor XIII A chain (Homo sapiens) (UniProt P00488).
T2 sequence (whole entry): T1 sequence (P00488 whole entry)
Briefly: Inhibition of F13-A in human plasma assessed as inhibition of fibrin clot formation at 2 X 10^-8 M by biotin incorporation assay in presence of 10 X 10^-3 mol/l reduced GSH. The following applies: values are per cent of control.

The target of test [3] is T2, Coagulation factor XIII A chain (Homo sapiens). In words: Inhibition of F13-A in human plasma assessed as inhibition of fibrin clot formation at 7.5 X 10^-8 M by biotin incorporation assay in presence of 10 X 10^-3 mol/l reduced GSH. Particulars: values are per cent of control.
For test [4], the target named is T3, Protein-glutamine gamma-glutamyltransferase (Homo sapiens, UniProt P21980).
T3 sequence (P21980 whole entry): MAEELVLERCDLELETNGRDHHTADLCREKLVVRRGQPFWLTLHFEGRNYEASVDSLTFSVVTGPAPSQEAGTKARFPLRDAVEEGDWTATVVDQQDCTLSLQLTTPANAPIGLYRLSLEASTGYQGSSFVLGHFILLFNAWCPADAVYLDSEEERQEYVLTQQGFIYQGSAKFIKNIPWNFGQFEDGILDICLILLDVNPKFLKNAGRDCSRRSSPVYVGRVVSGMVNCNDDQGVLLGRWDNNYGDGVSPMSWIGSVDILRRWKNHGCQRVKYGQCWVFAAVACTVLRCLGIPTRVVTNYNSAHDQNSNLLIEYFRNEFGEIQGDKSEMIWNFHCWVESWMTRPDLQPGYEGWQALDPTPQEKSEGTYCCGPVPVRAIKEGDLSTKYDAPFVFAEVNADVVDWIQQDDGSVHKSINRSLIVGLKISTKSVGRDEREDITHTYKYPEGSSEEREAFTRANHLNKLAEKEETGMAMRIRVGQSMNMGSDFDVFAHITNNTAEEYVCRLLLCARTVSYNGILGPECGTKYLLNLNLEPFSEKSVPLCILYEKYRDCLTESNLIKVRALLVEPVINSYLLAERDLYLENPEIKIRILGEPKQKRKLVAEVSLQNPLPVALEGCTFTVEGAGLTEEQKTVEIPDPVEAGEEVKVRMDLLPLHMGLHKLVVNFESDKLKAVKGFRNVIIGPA
Briefly: Inhibition of transglutaminase 2 (unknown origin).

Test [5] deals with T2, Coagulation factor XIII A chain (Homo sapiens). Briefly: Inhibition of F13-A in human plasma assessed as inhibition of fibrin clot formation at 1 X 10^-6 M by biotin incorporation assay. Particulars: values are per cent of control.
For test [6] the target is unchanged. Briefly: Inhibition of F13-A in human plasma assessed as inhibition of fibrin clot formation at 7.5 X 10^-8 M by biotin incorporation assay. Particulars: values are per cent of control.
Test [7] has the same target. Briefly: Inhibition of F13-A in human plasma assessed as inhibition of fibrin clot formation at 2 X 10^-7 M by biotin incorporation assay in presence of 10 X 10^-3 mol/l reduced GSH. Particulars: values are per cent of control.
For test [8] the target is unchanged. Briefly: Inhibition of F13-A in human plasma assessed as inhibition of fibrin clot formation at 1 X 10^-6 M by biotin incorporation assay in presence of 10 X 10^-3 mol/l reduced GSH. Particulars: values are per cent of control.
The target is the same in test [9]. Briefly: Inhibition of F13-A in human plasma assessed as inhibition of fibrin clot formation at 2 X 10^-7 M by biotin incorporation assay. Particulars: values are per cent of control.
Test [10] addresses Cathepsin S (Homo sapiens) (UniProt P25774). Briefly: Inhibition of cathepsin S (unknown origin) using Z-Val-Val-Arg-AMC as substrate at 100 uM measured every minute for 30 mins by fluorometric plate reader analysis.
The species entered for test [11] is Homo sapiens. Briefly: Selectivity ratio, ratio of concentration required for inhibition of cathepsin S (unknown origin) to IC50 for F13-A (unknown origin).
In test [12] the target is T2, Coagulation factor XIII A chain (Homo sapiens). Briefly: Inhibition of F13-A in human plasma assessed as inhibition of fibrin clot formation at 2 X 10^-8 M by biotin incorporation assay. Particulars: values are per cent of control.
For test [13] the target is unchanged. In words: Inhibition of F13-A (unknown origin) at 10^-6 mol/l in presence of 5 X 10^-3 mol/l DTT.
Test [14] addresses T1, Coagulation factor XIII A chain. In words: Inhibition of F13-A in human plasma assessed as inhibition of fibrin clot formation by biotin incorporation assay in presence of 1 mM reduced GSH.

The source made the active and inactive calls. The rule behind the calls is not given here.

One may read the IC50 as the concentration at which inhibition is half-maximal. Broadly, the residual activity is the signal under treatment as a percentage of the control signal.

Cathepsin S (Homo sapiens), sequence (P25774 115-331 limits assumed): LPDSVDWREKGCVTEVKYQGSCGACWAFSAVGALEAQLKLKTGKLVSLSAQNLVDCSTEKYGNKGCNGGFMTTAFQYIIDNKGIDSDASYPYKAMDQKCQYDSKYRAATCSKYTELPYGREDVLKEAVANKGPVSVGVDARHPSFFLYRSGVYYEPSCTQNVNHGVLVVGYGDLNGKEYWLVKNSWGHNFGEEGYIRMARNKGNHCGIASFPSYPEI

As to `CCCCc1ccc(NC(=O)[C@@H]2O[C@@H]2C(N)=O)cc1` (racemic), the IC50 stood at 0.22 µM in test [1] and 0.15 µM in [4]. Besides, the residual activity in [2] worked out at 102%; in test [3], 104%; in test [5], 27%; in test [6] it was 99%; in test [7] it was 79%; in test [8], 34%. For the same compound, the figures for the residual activity in [9] and in test [12] were 76% and 93%, respectively. Also, the inhibition result in test [10] was “inactive”. The Selectivity ratio in test [11] was 10000.

Turning to `NC(=O)[C@H]1O[C@H]1C(=O)Nc1ccc(Oc2ccccc2)cc1` (racemic), the concentration for half-maximal inhibition (IC50) in [1] was 0.055 µM; in [4] it was 0.046 µM. In addition, the residual activity in test [2] is 90%; in test [3], 78%; in test [5], 6.1%; in test [6], 66%; in test [7] it was 47%; in test [8], 7.8%. Further, the residual activity in test [9] was 32%; in test [12] it was 96%. For the same compound, the inhibition result in test [13] is “Active”. For the same compound, in test [10], the inhibition entry was “inactive”. Moreover, in [11], the Selectivity ratio was found to be 10000.

As for `NC(=O)[C@H]1O[C@H]1C(=O)Nc1cccc(Cl)c1` (racemic), the IC50 in [1] and in test [4] was 0.048 µM in each case. The inhibition result in [10] is “inactive”. In addition, the Selectivity ratio in [11] worked out at 10000.

In the case of `NC(=O)[C@H]1O[C@H]1C(=O)Nc1cccc(Oc2ccccc2)c1` (racemic), the figures for the IC50 in test [1] and in [4] were 0.004 µM and 0.05 µM, respectively. Moreover, in test [10], the inhibition result was “inactive”. For the same compound, in [11], the Selectivity ratio stood at 10000.

As for `NC(=O)[C@@H]1O[C@@H]1C(=O)Nc1ccccc1` (racemic), the concentration for half-maximal inhibition (IC50) in test [1] was found to be 0.72 µM; in test [4] it was 1.1 µM. In addition, the inhibition entry in test [10] was “inactive”. In addition, in test [11], the Selectivity ratio turned out to be 10000.

For `NC(=O)[C@@H]1O[C@@H]1C(=O)Nc1ccc(Br)cc1` (racemic), the half-maximal inhibitory concentration (IC50) in test [1] is 0.13 µM; in test [4] it was 0.057 µM. For the same compound, the inhibition result in test [10] is “inactive”. Also, the Selectivity ratio in test [11] came to 10000.

For `NC(=O)[C@@H]1O[C@@H]1C(=O)Nc1ccc(Br)c(Cl)c1` (racemic), the 50% inhibitory concentration (IC50) was determined as 0.004 µM in test [1] and 0.0096 µM in test [4]. In test [10], the inhibition result was “inactive”. In addition, in [11], the Selectivity ratio turned out to be 10000.

`Cc1ccc(NC(=O)[C@H]2O[C@H]2C(N)=O)cc1C` (racemic): the half-maximal inhibitory concentration (IC50) in [1] came out at 0.11 µM; in [4], 0.13 µM. Also, the inhibition entry in [10] was “inactive”. The Selectivity ratio in test [11] came out at 10000.

For the compound `NC(=O)[C@@H]1O[C@@H]1C(=O)Nc1ccc(CCNS(=O)(=O)c2ccccc2[N+](=O)[O-])cc1` (racemic), the figures for the IC50 in [1] and in [4] were 0.09 µM and 0.088 µM, respectively. Further, in test [10], the inhibition entry was “inactive”. Besides, in test [11], the Selectivity ratio turned out to be 10000.

`NC(=O)[C@@H]1O[C@@H]1C(=O)Nc1ccc(Oc2ccc([N+](=O)[O-])cc2)cc1` (racemic): the IC50 in test [1] turned out to be 0.43 µM. Besides, the inhibition entry in test [10] is “inactive”. Besides, the Selectivity ratio in test [11] was determined as 10000.

As for `NC(=O)[C@@H]1O[C@@H]1C(=O)Nc1ccc(Oc2ccc(N)cc2)cc1` (racemic), the IC50 in test [1] is 0.086 µM; in test [4], 0.048 µM. Also, the inhibition result in test [10] was “inactive”. In addition, the Selectivity ratio in test [11] worked out at 10000.

As for `NC(=O)[C@@H]1O[C@@H]1C(=O)Nc1ccc(Oc2ccc(NC(=O)c3ccc(F)cc3)cc2)cc1` (racemic), the half-inhibitory concentration (IC50) was 0.1 µM in test [1] and 0.15 µM in test [4]. Moreover, the inhibition result in test [10] was “inactive”. Further, the Selectivity ratio in test [11] came out at 10000.

`C/C=C/C/C=C/CCC(=O)[C@H]1O[C@H]1C(N)=O` [CERULENIN]: the values for the IC50 in [1] and in test [14] were 4 µM and 18 µM, respectively.
